Structures are written as SMILES. Where a name gives a salt, the structure may show the parent alone.

Drawing on US7750016B2, “Hydroxyalkyl substituted pyrido-7-pyrimidin-7-ones” (Roche Palo Alto LLC, priority 2003, dated 2010), this text covers IC50 and melting point for nine molecules.

In one data set the test system is LPS-induced IL-1β production in undiluted human whole blood. Briefly: human whole blood (HWB) in vitro assay, IL-1β ELISA. In kind it is cell-based. To be noted: 0.5 μg/mL LPS, 18 hours, 30 min pre-incubation. A general note: In an ELISA, binding on a coated surface is turned into a signal by an enzyme label.
Procedure: LPS (lipopolysaccharide) treatment of human whole blood induces IL-1β (Interleukin-1β) production that can be measured by an IL-1β specific ELISA. Human whole blood was pre-incubated with the indicated concentrations of a compound of the present invention in 0.5% DMSO (final concentration) for 30 min at 37° C. Samples were stimulated with 0.5 μg/mL of lipopolysaccharide (LPS, from Sigma) (final concentration) for 18 hours to induce the synthesis and secretion of IL-1β which was measured using an IL-1β ELISA.
A stock solution of 6 mM in DMSO (from Sigma) was prepared by dissolving the compound in DMSO in 449 μL of DMSO. From the 6 mM stock solution, six subsequent half-log serial dilutions in DMSO were performed to give the following concentrations: 1.9 mM, 600, 190, 60, 19, and 6 μM. […] 216 μL DMSO was placed in each of tubes 2-7.
Reconstitution of LPS: in the 10 mg. vial of LPS, 10 mL 1× Phosphate-Buffered Saline (i.e., 1×PBS, from Gibco-BRL) was added, mixed well and transferred to a 50 mL tube. Another 10 mL was added to the LPS vial, followed by rinsing, and this rinse was added to the 50 mL tube and mixed will. The solution was filtered and sterilized, and aliquotted in desired amounts (100 μL aliquot was sufficient for 4 plates). This yielded a 0.5 mg/mL stock which was diluted 1/100 for use in protocol. Just prior to use, the LPS stock was diluted 1/100 (100 μL in 10 mL of RPMI) […]
In general, IC50 refers to the concentration needed to halve the response being measured. A higher IC50 goes with weaker potency in that assay. Regarding `C[C@@H](O)Cn1c(=O)c(Oc2ccc(F)cc2F)cc2cnc(NC3CCOCC3)nc21` [Compound 20, 6-(2,4-Difluoro-phenoxy)-8-((R)-2-hydroxy-propyl)-2-(tetrahydro-pyran-4-ylamino)-8H-pyrido[2,3-d]pyrimidin-7-one], the half-maximal inhibitory concentration (IC50) is 1 nM.

Test system in the next data set: not given
Experiment: not given
Settings: not given
As a reminder, the melting point is the temperature of the solid-liquid transition. `C[C@H](O)Cn1c(=O)c(Oc2ccc(F)cc2F)cc2cnc(NC(C)(C)CO)nc21` (as salt: hydrochloride) [Compound 36, 6-(2,4-Difluoro-phenoxy)-2-(2-hydroxy-1,1-dimethyl-ethylamino)-8-((S)-2-hydroxy-propyl)-8H-pyrido[2,3-d]pyrimidin-7-one] yielded a melting point of 187.4 to 189.9 °C.

Take `CC(=O)Cn1c(=O)c(Oc2ccc(F)cc2F)cc2cnc(N[C@H](C)CO)nc21` (as salt: hydrochloride) [Compound 46, 6-(2,4-Difluoro-phenoxy)-2-((R)-2-hydroxy-1-methyl-ethylamino)-8-(2-oxo-propyl)-8H-pyrido[2,3-d]pyrimidin-7-one]: the melting point fell in the range of 207.8 to 216.4 °C.

`C[C@H](O)Cn1c(=O)c(Oc2ccc(F)cc2F)cc2cnc(N[C@H](C)CO)nc21` (as salt: hydrochloride) [Compound 17, 6-(2,4-Difluoro-phenoxy)-2-((R)-2-hydroxy-1-methyl-ethylamino)-8-((S)-2-hydroxy-propyl)-8H-pyrido[2,3-d]pyrimidin-7-one]: the melting point lay within 174.9 to 178.1 °C. Molecule `C[C@@H](O)Cn1c(=O)c(Oc2ccc(F)cc2F)cc2cnc(N[C@@H](C)CO)nc21` (as salt: hydrochloride) [Compound 41, 6-(2,4-Difluoro-phenoxy)-2-((S)-2-hydroxy-1-methyl-ethylamino)-8-((R)-2-hydroxy-propyl)-8H-pyrido[2,3-d]pyrimidin-7-one] registered a melting point of 186 to 189.1 °C. On the same count and under the same terms, for `C[C@@H](O)Cn1c(=O)c(Oc2ccc(F)cc2F)cc2cnc(NC(C)(C)CO)nc21` (as salt: hydrochloride) [Compound 31, 6-(2,4-Difluoro-phenoxy)-2-(2-hydroxy-1,1-dimethyl-ethylamino)-8-((R)-2-hydroxy-propyl)-8H-pyrido[2,3-d]pyrimidin-7-one] the value was 182 to 183.9 °C; for `C[C@H](CO)Nc1ncc2cc(Oc3ccc(F)cc3F)c(=O)n(C[C@@H](C)O)c2n1` (as salt: hydrochloride) [Compound 42, 6-(2,4-Difluoro-phenoxy)-2-((R)-2-hydroxy-1-methyl-ethylamino)-8-((R)-2-hydroxy-propyl)-8H-pyrido[2,3-d]pyrimidin-7-one], 181.5 to 184.4 °C; for `CC(=O)Cn1c(=O)c(Oc2ccc(F)cc2F)cc2cnc(N[C@@H](C)CO)nc21` (as salt: hydrochloride) [Compound 45, 6-(2,4-Difluoro-phenoxy)-2-((S)-2-hydroxy-1-methyl-ethylamino)-8-(2-oxo-propyl)-8H-pyrido[2,3-d]pyrimidin-7-one], 207.9 to 214.6 °C. For `C[C@H](O)Cn1c(=O)c(Oc2ccc(F)cc2F)cc2cnc(N[C@@H](C)CO)nc21` (as salt: hydrochloride) [Compound 16, 6-(2,4-Difluoro-phenoxy)-2-((S)-2-hydroxy-1-methyl-ethylamino)-8-((S)-2-hydroxy-propyl)-8H-pyrido[2,3-d]pyrimidin-7-one], the melting point lay within 175.1 to 179.1 °C.
